Laboratory results taken from PubChem BioAssay (NCI).
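In this assay, cells in 96-well plates receive the compound at five concentrations for 48 hours. Endpoints are linearly interpolated between the surrounding concentrations. TGI marks complete inhibition of growth.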

Assays:
Assay in all cases: NCI tumour cell line growth inhibition, 48 h
U251 CNS = tested on: U251 CNS
TK-10 renal = tested on: TK-10 renal
HT29 colon = tested on: HT29 colon
EKVX NSCLC = tested on: EKVX NSCLC
NCI-H522 lung = tested on: NCI-H522 lung
SNB-19 CNS = tested on: SNB-19 CNS
HCT-15 colon = tested on: HCT-15 colon
786-0 renal = tested on: 786-0 renal
A549 NSCLC = tested on: A549 NSCLC
DU-145 prostate = tested on: DU-145 prostate
NCI/ADR-RES ovarian = tested on: NCI/ADR-RES ovarian
HCT-116 colon = tested on: HCT-116 colon
SNB-75 CNS = tested on: SNB-75 CNS
NCI-H460 lung = tested on: NCI-H460 lung
SW-620 colon = tested on: SW-620 colon
OVCAR-5 ovarian = tested on: OVCAR-5 ovarian
RXF 393 renal = tested on: RXF 393 renal
MDA-MB-231 breast = tested on: MDA-MB-231 breast
SK-MEL-28 melanoma = tested on: SK-MEL-28 melanoma
HS 578T breast = tested on: HS 578T breast
KM12 colon = tested on: KM12 colon
ACHN renal = tested on: ACHN renal
NCI-H23 lung = tested on: NCI-H23 lung
IGROV1 ovarian = tested on: IGROV1 ovarian
COLO 205 colon = tested on: COLO 205 colon
SN12C renal = tested on: SN12C renal
M14 melanoma = tested on: M14 melanoma
HOP-62 NSCLC = tested on: HOP-62 NSCLC
SK-OV-3 ovarian = tested on: SK-OV-3 ovarian
CAKI-1 renal = tested on: CAKI-1 renal
OVCAR-4 ovarian = tested on: OVCAR-4 ovarian
NCI-H226 lung = tested on: NCI-H226 lung
MDA-N = tested on: MDA-N
BT-549 breast = tested on: BT-549 breast
SF-268 CNS = tested on: SF-268 CNS
SK-MEL-5 melanoma = tested on: SK-MEL-5 melanoma
UO-31 renal = tested on: UO-31 renal
OVCAR-8 ovarian = tested on: OVCAR-8 ovarian
UACC-257 melanoma = tested on: UACC-257 melanoma
PC-3 prostate = tested on: PC-3 prostate
T-47D breast = tested on: T-47D breast
HCC-2998 colon = tested on: HCC-2998 colon
CCRF-CEM leukemia = tested on: CCRF-CEM leukemia
MDA-MB-435 = tested on: MDA-MB-435
SF-295 CNS = tested on: SF-295 CNS
MOLT-4 leukemia = tested on: MOLT-4 leukemia
MALME-3M melanoma = tested on: MALME-3M melanoma
K-562 leukemia = tested on: K-562 leukemia
UACC-62 melanoma = tested on: UACC-62 melanoma
RPMI-8226 leukemia = tested on: RPMI-8226 leukemia
MCF7 breast = tested on: MCF7 breast
OVCAR-3 ovarian = tested on: OVCAR-3 ovarian
SK-MEL-2 melanoma = tested on: SK-MEL-2 melanoma
HL-60(TB) leukemia = tested on: HL-60(TB) leukemia
HOP-92 NSCLC = tested on: HOP-92 NSCLC
A498 renal = tested on: A498 renal
LOX IMVI melanoma = tested on: LOX IMVI melanoma
SF-539 CNS = tested on: SF-539 CNS

Measured: TGI

CN1C(=O)C(/C=N/NC(=O)c2cccnc2)C(N)N(C)C1=O (configuration not stated)
not listed: HL-60(TB) leukemia | HOP-92 NSCLC | A498 renal | LOX IMVI melanoma | SF-539 CNS
> 100 µM: all other assays above

OCc1cc2c([nH]c3ccccc32)c(C(O)CO)n1 (configuration not stated)
not listed: RXF 393 renal | HOP-62 NSCLC
> 100 µM: all other assays above

COc1ccc(Cc2c(N)[nH]c(=O)[nH]c2=O)cc1
not listed: DU-145 prostate | CCRF-CEM leukemia | MOLT-4 leukemia | MCF7 breast | HL-60(TB) leukemia
> 100 µM: all other assays above
